# Like-named read-outs stand apart in the source and are kept apart here.
# How the values were obtained:
# [1] = system: S. mutans Gtfs; experiment: Gtf inhibition determined by glucan quantification; format: biochemical, Streptococcus mutans; conditions: role: inhibitor
# From the text: The interspecies co-adherence between S. mutans and other microorganisms in the oral cavity is critical for biofilm formation and cariogenicity. Though the mechanisms of such adhesions and co-aggregations are not fully elucidated, it is believed that the extracellular polysaccharide (EPS) matrix of S. mutans has an important role in this process^49, 50. It is reported that glucans synthesized by Gtfs when incorporated into the tooth pellicle to provide enhanced binding sites for other microorganisms to form stable and persistent microcolonies, which provides mechanical stability to the EPS matrix^50, 51. Therefore, Gtf inhibition assays were performed to assess the ability of HA5 to inhibit the Gtfs and glucan production using a reported procedure and IC50 value was calculated^52.
# HA5 is a polyhydroxy compound that contains a Michael acceptor functionality which raises concerns about non-specific and covalent binding.
# Gtf inhibition determined by glucan quantification assays. Overnight cultures of S. mutans UA159 were centrifuged (6500 rpm, 4° C., 10 min) to remove cells. Supernatant was mixed with ethanol (1:1) and incubated at −80° C. for 1 h. The precipitated Gtfs were palleted using centrifugation and resuspended in chemically defined media (CDM) 10 μL of Gtfs suspended in CDM were assayed on Ibidi slides with varying concentrations of inhibitor, 1% sucrose, 1% DMSO and 1 μM Cascade blue dye in CDM. The slides were then incubated at 37° C. with 5% CO2 for 16 h after which, the wells of Ibidi slides were gently rinsed with 1×PBS and treated with 1×PBS for fluorescence microscopy imaging. The images obtained were processed in ImageJ to quantify glucans and graphed in GraphPad Prism.
# Gtf inhibition assays were performed to assess the ability of HA6 to inhibit the Gtfs and glucan production using a reported procedure and IC50 value was calculated^[44, 45] Overnight cultures of S. mutans UA159 were centrifuged (6500 rpm, 4° C., 10 min) to remove the cells. Supernatant was mixed with ethanol (1:1) and incubated at −80° C. for 1 h. The precipitated Gtfs were palleted using centrifugation and resuspended in CDM (1 mL). 10 μL of Gtfs suspension in CDM was assayed on Ibidi slides with varying concentrations of PEHA5 or HA6, 1% sucrose, 1% DMSO and 1 μM Cascade blue dextran conjugated dye in CDM. The slides were then incubated at 37° C. with 5% CO2 for 16 h after which, the wells of Ibidi slides were gently rinsed with 1×PBS and imaged using fluorescence microscopy. The images obtained were processed in ImageJ to quantify glucans and graphed in GraphPad Prism 10.0.2.
# [2] = system: S. mutans UA159; experiment: Gnotobiotic rat model of dental caries (PEHA5 / HA5 study, Example 2); format: in vivo, gnotobiotic rats infected with S. mutans UA159; parameters: key to Buccal Mean Caries Scores (±SEM) E / Buccal Mean Caries Scores (±SEM) Ds / Buccal Mean Caries Scores (±SEM) Dm / Buccal Mean Caries Scores (±SEM) Dx / Sulcal Mean Caries Scores (± SEM) E / Sulcal Mean Caries Scores (± SEM) Ds / Sulcal Mean Caries Scores (± SEM) Dm / Sulcal Mean Caries Scores (± SEM) Dx / Proximal Mean Caries Scores (± SEM) E / Proximal Mean Caries Scores (± SEM) Ds: caries scored by the Keyes method; conditions: 100 μM
# From the text: (§1) The effect of PEHA5 on S. mutans colonization and virulence was compared side-by-side with HA5 using a well-established gnotobiotic rat model of dental caries^[50-54]. A (vehicle+infection only) group was included as a negative control. All rats from the experimental groups and from the control group were colonized with S. mutans UA159. […] Similar reductions in caries scores were also observed in sulcal caries scores and proximal caries scores (Table 5). We were unable to record the effect of the treatment on dentinal moderate (Dm) and dentinal extensive (Dx) scores in the proximal area due to the absence of dentinal lesions in the control and treated groups.
# We used Fischer 344 rats that were bred and maintained in trexler isolators for this experiment. Male and female rat pups were removed from isolators at 20 days of age and randomly assigned into treatment groups of 5 rats/group in cages with filter tops. Rats were then infected with S. mutans UA159 strain by oral swabbing daily for four consecutive days with a fresh overnight culture of S. mutans UA159. Rats were provided with caries promoting Teklad Diet 305 containing […] (Harlan Laboratories, Inc., Indianapolis, IN) and sterile drinking water ad libitum. Oral swabs were taken 5 days post-infection and plated on Todd Hewitt (TH) agar plates and incubated at 37° C. in an environment of 5% CO2 in the air to confirm colonization. Rats were weighed at weaning and then weekly throughout the experiment. One-week post-infection, the molars of the rats were brushed twice daily for 4 weeks with the test compounds using camel-hair brushes. Four treatment groups used in this study were: 1) HA5 (100 μM); 2) […] (100 μM); 3) NaF (250 ppm); and 4) infected untreated rats. Drinking water was withheld for 60 min following each treatment with the compound. Animals were weighed at weaning and at the termination of the experiment. On day 60, the rats were sacrificed using CO2 followed by cervical dislocation or bilateral thoracotomy. The mandibles were surgically removed and cleaned of excess tissue to assess the level of bacteria present and the extent of caries formation. The right mandible from each rat was placed in a tube containing phosphate buffer (3 mL), placed on ice and sonicated (10 sec) to release bacteria from the molars. Each sample was serially diluted, plated on blood (BAP) and mitis-salivarius (MS) agar plates and incubated in an environment of 5% CO2 in air at 37° C. to quantify the level of total bacteria and S. mutans present in the plaque. The right and left mandibles from each rat were then placed in 95% ethanol for 24 h. The mandibles will be cleaned and stained overnight with murexide solution. After drying, the mandibles were sectioned and scored for caries activity using the Keyes method Caries scores were recorded for the buccal, sulcal and proximal molar surfaces individually so that differences among the surfaces can be distinguished. Statistical significance in the mean caries scores, colony-forming units (CFU)/mandible and body weights between groups of rats were determined by one-way analysis of variance (ANOVA) with the Tukey-Kramer multiple comparison test using the InStat program (GraphPad Prism 10.0.2.). When determining the statistical significance between the two groups, an unpaired t-test was applied. Differences between groups were considered significant at a P-value<0.05.
# [3] = Body weight of animals, PEHA5 / HA5 study; format: in vivo, gnotobiotic rats; conditions: 100 μM
# From the text: as §1
# We used Fischer 344 rats that were bred and maintained in trexler isolators for this experiment. Male and female rat pups were removed from isolators at 20 days of age and randomly assigned into treatment groups of 5 rats/group in cages with filter tops. […] Each sample was serially diluted, plated on blood (BAP) and mitis-salivarius (MS) agar plates and incubated in an environment of 5% CO2 in air at 37° C. to quantify the level of total bacteria and S. mutans present in the plaque. […] After drying, the mandibles were sectioned and scored for caries activity using the Keyes method Caries scores were recorded for the buccal, sulcal and proximal molar surfaces individually so that differences among the surfaces can be distinguished. […]
compound,measurement,setting,value
"O=C1/C(=C/c2cc(O)c(O)cc2O)Oc2ccccc21 [HA5, 2-[(2′,4′,5′-Trihydroxyphenyl)methylidene]-2,3-dihydro-1-benzofuran-3-one]",IC50,"[1]; 1% sucrose, 1% DMSO, no BME or Triton-X-100, read-out: Gtf inhibition (glucan production) IC50",10.6 µM
same,IC50,"[1]; no BME, unit M, read-out: Gtf inhibition (glucan production) IC50",10.6 µM
same,IC50,"[1]; with beta-mercaptoethanol 1 mM, read-out: Gtf inhibition IC50 in the presence of BME",7.84 µM
same,IC50,"[1]; with detergent Triton-X-100, read-out: Gtf inhibition IC50 in the presence of Triton-X-100",5.16 µM
same,effect on bacterial colonization,[2]; 4-week treatment,did not affect bacterial colonization significantly
same,reduction in caries scores,[2]; 4-week treatment,significant reductions in buccal caries scores
same,CFU/mL BAP,[2]; Blood agar plate,5.2 ± 1.4 CFU/mL (×10^5)
same,CFU/mL MS,[2]; Mitis-Salivarius agar,5.5 ± 2.6 CFU/mL (×10^5)
same,Buccal Mean Caries Scores (±SEM) Dx,"[2]; dentinal extensive, 4 weeks",1.4 ± 0.4
same,Sulcal Mean Caries Scores (± SEM) Dx,"[2]; dentinal extensive, 4 weeks",4.8 ± 0.9
same,Buccal Mean Caries Scores (±SEM) Dm,"[2]; dentinal moderate, 4 weeks",2.8 ± 0.5
same,Sulcal Mean Caries Scores (± SEM) Dm,"[2]; dentinal moderate, 4 weeks",9.4 ± 0.5
same,Buccal Mean Caries Scores (±SEM) Ds,"[2]; dentinal slight, 4 weeks",6.4 ± 1.0
same,Proximal Mean Caries Scores (± SEM) Ds,"[2]; dentinal slight, 4 weeks",3.4 ± 0.6
same,Sulcal Mean Caries Scores (± SEM) Ds,"[2]; dentinal slight, 4 weeks",15.0 ± 0.9
same,Buccal Mean Caries Scores (±SEM) E,"[2]; enamel, 4 weeks",9.0 ± 0.6
same,Proximal Mean Caries Scores (± SEM) E,"[2]; enamel, 4 weeks",5.2 ± 0.5
same,Sulcal Mean Caries Scores (± SEM) E,"[2]; enamel, 4 weeks",20.6 ± 0.8
same,Weight,[3],145 ± 14 g
same,weight loss,[3]; 4-week treatment,did not experience any weight loss

# From patent US20260315431A1, “NANOMATERIAL ENCAPSULATED BIOFILM INHIBITORS FOR DENTAL CARIES TREATMENT” (THE UAB RESEARCH FOUNDATION, priority 2023, published 2026)
